Test results as given in paper PMC6631223, “Chain-Branched Polyhydroxylated Octahydro-1H-Indoles as Potential Leads against Lysosomal Storage Diseases” (Pharmaceuticals, 2019).

Molecular target: T1, β-Glucosidase (bovine liver) (Bos taurus, UniProt F1MNT6)
T1 sequence (F1MNT6 1-469): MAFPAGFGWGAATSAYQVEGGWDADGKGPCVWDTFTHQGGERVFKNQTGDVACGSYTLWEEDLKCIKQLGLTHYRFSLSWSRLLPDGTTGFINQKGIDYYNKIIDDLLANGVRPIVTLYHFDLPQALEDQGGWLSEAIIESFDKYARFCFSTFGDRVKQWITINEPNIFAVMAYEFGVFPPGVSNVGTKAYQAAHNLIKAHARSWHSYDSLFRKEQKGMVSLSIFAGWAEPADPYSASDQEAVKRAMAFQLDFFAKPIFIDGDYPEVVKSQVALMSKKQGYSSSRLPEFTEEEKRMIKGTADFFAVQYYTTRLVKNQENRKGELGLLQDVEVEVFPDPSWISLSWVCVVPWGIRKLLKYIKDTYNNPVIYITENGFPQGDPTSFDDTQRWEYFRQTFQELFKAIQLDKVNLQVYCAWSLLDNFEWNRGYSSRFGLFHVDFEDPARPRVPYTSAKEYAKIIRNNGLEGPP
Assay: Glycosidase inhibition: β-glucosidase (bovine liver)
Format: biochemical
Excerpt: The enzymes α-glucosidase (from yeast, rice), β-glucosidase (from almonds, bovine liver), α-galactosidase (from coffee beans), β-galactosidase (from bovine liver), α-mannosidase (from jack beans), β-mannosidase (from snails), α-L-fucosidase (from bovine kidney), α-L-rhamnosidase (from Penicillium decumbens), β-glucuronidases (from Escherichia coli), α,α-trehalase (from porcine kidney), amyloglucosidase (from Aspergillus niger), p-nitrophenyl glycosides, and various disaccharides were purchased from Sigma-Aldrich Co. Brush border membranes were prepared from the rat small intestine according to the method of Kessler et al., and were assayed at pH 6.8 for rat intestinal maltase using maltose. For rat intestinal glucosidases and porcine kidney trehalase activities, the reaction mixture (0.2 mL) contained 25 mM substrate and the appropriate amount of enzyme, and the incubations were performed for 10 min at 37 °C. The reaction was stopped by heating at 100 °C for 3 min. […] The absorbance at 505 nm was measured to determine the amount of the released D-glucose. Other glycosidase activities were determined using an appropriate p-nitrophenyl glycoside as substrate at the optimum pH of each enzyme. […] The released p-nitrophenol was measured spectrometrically at 400 nm.

SMILES | inhibition at 1000 µM [%]
CC[C@@H]1CN[C@H]2C[C@@H](O)[C@H](O)[C@@H](O)[C@H]12 [Compound 10, (3S,3aR,4S,5S,6R,7aS)-3-Ethyloctahydro-1H-indole-4,5,6-triol] | 0
CC[C@H]1CN[C@H]2C[C@@H](O)[C@H](O)[C@@H](O)[C@H]12 [Compound 13, (3R,3aR,4S,5S,6R,7aS)-3-ethyloctahydro-1H-indole-4,5,6-triol] | 21.7
